Assay: Colorimetric (Ehrlich's reagent) detection of kynurenine-like molecules; thermal forced degradation / storage
Assay type: physicochemical
Excerpt: The quantitation of kynurenine-like species in […] was detected using a modified method by Meyer et al. (“Suitability of recombinant Escherichia coli and Pseudomonas putida strains for selective biotransformation of m-nitrotoluene by xylene monooxygenase”, Appl Environ Microbiol 71 (2005) 6624-6632). The method is based on the reaction of p-dimethylamino-benzaldehyde (DMAB or Ehrlich's reagent) with primary aromatic amines to form yellow imines in acidic conditions. Briefly, […], […] or kynurenine standard (0-800 μM in 0.9% saline) was combined in triplicate with 100 μL Ehrlich's reagent in a 96-well plate. The plate was read at 492 nm using a SpectraMax M2 plate reader (Molecular Devices, Sunnyvale, Calif., USA). […] […] was incubated at ambient temperature or 80° C. for 6 days. Aliquots were collected at 0, 1, 2, 3, or 6 days and analyzed in triplicate for kynurenine-like molecules using the colorimetric assay described in Section 2.3. Also, 4 mM N-acetyl tryptophan in 0.9% saline was incubated at 80° C. for 6 days.

CC(=O)N[C@@H](Cc1c[nH]c2ccccc12)C(=O)O [NAT, N-acetyl tryptophan]
concentration of kynurenine-like molecules (4 mM in 0.9% saline heated at 80° C. for 6 days): 11.6 µM | levels of kynurenine-like molecules (4 mM in 0.9% saline, t=0): undetectable
